According to US12466827B2, “1,3,4-oxadiazole derivative compounds as histone deacetylase 6 inhibitor, and the pharmaceutical composition comprising the same” (CHONG KUN DANG PHARMACEUTICAL CORP., priority 2020, dated 2025):

What was measured:
human recombinant HDAC1 = target: T1, human recombinant HDAC1 (Homo sapiens, UniProt Q13547); experiment: In vitro HDAC enzyme activity inhibition assay (HDAC1); format: biochemical; details: Fluor de Lys-SIRT1 substrate 10 μM, 30° C., 60 minutes, fluorescence
T1 construct: purchased Enzo Life Sciences, Inc. BML-SE456
Protocol: (§1) In order to confirm the selectivity of the compounds represented by Chemical Formula I of the present invention to HDAC6 through HDAC1 and HDAC6 enzyme activity inhibition experiments, a comparison experiment was performed using the material that has already been developed as a control group.
(§2) HDAC enzyme activity was measured using the HDAC Fluorimetric Drug Discovery Kit (Enzo Life Sciences, Inc., BML-AK511, 516). For the HDAC1 enzyme activity test, human recombinant HDAC1 (BML-SE456) was used as an enzyme source and Fluor de Lys-SIRT1 (BNL-KI177) was used as a substrate. After dispensing 5-fold diluted compounds into a 96-well plate, 0.3 μg of enzyme and 10 μM substrate were added to each well of the plate and allowed to react at 30° C. for 60 minutes. Next, Fluor de Lys Developer II (BML-KI176) was added and reacted for 30 minutes to complete the reaction, and then the fluorescence values (Ex 360, Em 460) were measured using a multi-plate reader (Flexstation 3, Molecular Device). The HDAC6 enzymes were tested using human recombinant HDAC6 (382180) from Calbiochem Inc., according to the same protocol as the HDAC1 enzyme activity test method. With respect to the final result values, respective IC50 values were calculated using GraphPad Prism 4.0 program, and results thereof were summarized in Table 4 below.

human recombinant HDAC6 = target: T2, human recombinant HDAC6 (Homo sapiens, UniProt Q9UBN7); experiment: In vitro HDAC enzyme activity inhibition assay (HDAC6); format: biochemical; details: for HDAC6 selectivity (fold): HDAC6 over HDAC1; for IC50: same protocol as the HDAC1 test, human recombinant HDAC6 (Calbiochem)
T2 construct: purchased Calbiochem Inc. 382180
T2 sequence (Q9UBN7 1-1215): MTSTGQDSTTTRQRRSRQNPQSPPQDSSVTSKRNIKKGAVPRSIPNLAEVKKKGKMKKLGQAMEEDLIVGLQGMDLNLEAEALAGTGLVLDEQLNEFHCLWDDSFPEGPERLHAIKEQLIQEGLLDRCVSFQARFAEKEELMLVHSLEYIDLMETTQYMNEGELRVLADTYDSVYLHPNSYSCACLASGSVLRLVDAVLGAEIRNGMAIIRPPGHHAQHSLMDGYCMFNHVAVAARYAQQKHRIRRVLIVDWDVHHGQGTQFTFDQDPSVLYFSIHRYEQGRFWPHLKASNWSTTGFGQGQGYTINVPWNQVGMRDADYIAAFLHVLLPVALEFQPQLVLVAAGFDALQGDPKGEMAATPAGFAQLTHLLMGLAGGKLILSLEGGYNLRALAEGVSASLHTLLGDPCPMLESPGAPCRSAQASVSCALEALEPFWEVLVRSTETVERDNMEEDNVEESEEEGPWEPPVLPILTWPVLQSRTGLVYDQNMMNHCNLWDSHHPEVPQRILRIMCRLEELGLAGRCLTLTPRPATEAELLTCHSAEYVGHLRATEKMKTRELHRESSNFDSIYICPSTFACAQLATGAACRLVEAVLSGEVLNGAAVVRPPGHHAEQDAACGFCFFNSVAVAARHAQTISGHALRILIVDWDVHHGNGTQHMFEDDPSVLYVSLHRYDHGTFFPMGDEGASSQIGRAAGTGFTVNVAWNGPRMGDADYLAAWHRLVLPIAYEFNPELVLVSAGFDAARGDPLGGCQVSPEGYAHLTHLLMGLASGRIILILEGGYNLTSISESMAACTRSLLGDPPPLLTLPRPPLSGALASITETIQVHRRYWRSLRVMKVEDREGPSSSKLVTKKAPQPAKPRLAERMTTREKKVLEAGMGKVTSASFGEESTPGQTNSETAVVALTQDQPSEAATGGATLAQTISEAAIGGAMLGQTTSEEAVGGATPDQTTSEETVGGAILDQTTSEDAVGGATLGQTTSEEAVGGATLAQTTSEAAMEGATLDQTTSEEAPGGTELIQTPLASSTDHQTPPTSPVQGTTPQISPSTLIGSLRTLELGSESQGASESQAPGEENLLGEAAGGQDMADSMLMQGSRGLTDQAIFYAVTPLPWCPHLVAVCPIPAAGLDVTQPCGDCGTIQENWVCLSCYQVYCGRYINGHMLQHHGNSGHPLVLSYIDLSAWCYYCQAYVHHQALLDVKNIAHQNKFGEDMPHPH
Protocol: as §1, §2

T1 sequence (Q13547 whole entry): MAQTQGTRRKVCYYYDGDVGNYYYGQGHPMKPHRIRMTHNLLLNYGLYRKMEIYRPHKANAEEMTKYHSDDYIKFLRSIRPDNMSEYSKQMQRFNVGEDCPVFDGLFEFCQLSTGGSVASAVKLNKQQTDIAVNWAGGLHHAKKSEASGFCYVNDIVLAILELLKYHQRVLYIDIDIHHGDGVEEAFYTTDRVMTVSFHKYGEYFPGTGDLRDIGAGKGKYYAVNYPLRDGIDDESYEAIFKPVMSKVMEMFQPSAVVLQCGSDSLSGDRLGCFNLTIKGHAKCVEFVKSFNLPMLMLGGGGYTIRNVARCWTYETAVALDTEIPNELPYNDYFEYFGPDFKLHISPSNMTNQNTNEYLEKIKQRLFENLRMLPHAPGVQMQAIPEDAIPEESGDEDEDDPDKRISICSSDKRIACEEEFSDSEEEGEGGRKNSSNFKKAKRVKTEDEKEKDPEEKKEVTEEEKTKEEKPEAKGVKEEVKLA

Row | IC50 (human recombinant HDAC1) [nM] | HDAC6 selectivity (fold) (human recombinant HDAC6) | IC50 (human recombinant HDAC6) [nM] | SMILES
1 | > 50000 | 333 | 150 | O=S(=O)(N1CCN(c2ccccn2)CC1)N(Cc1cn2ccc(-c3nnc(C(F)F)o3)cc2n1)c1ccccc1 [Compound 4274, N-((7-(5-(difluoromethyl)-1,3,4-oxadiazol-2-yl)imidazo[1,2-a]pyridin-2-yl)methyl)-N-phenyl-4-(pyridin-2-yl)piperazine-1-sulfonamide]
2 | > 50000 | 503 | 99.4 | CN(C)C(=O)N1CCC(S(=O)(=O)N(Cc2cn3ccc(-c4nnc(C(F)F)o4)cc3n2)c2cccc(F)c2)CC1 [Compound 4253, 4—(N-((7-(5-(difluoromethyl)-1,3,4-oxadiazol-2-yl)imidazo[1,2-a]pyridin-2-yl)methyl)-N-(3-fluorophenyl)sulfamoyl)-N, N-dimethylpiperidine-1-carboxamide]
3 | > 50000 | 525 | 95.3 | O=S(=O)(C1CCN(C2CCC(F)(F)CC2)CC1)N(Cc1cn2ccc(-c3nnc(C(F)F)o3)cc2n1)c1cccc(F)c1 [Compound 4244, 1-(4,4-difluorocyclohexyl)-N-((7-(5-(difluoromethyl)-1,3,4-oxadiazol-2-yl)imidazo[1,2-a]pyridin-2-yl)methyl)-N-(3-fluorophenyl)piperidine-4-sulfonamide]
4 | > 50000 | 278 | 180 | CCN1CCC(S(=O)(=O)N(Cc2cn3ccc(-c4nnc(C(F)F)o4)cc3n2)c2ccccc2)CC1 [Compound 4214, N-((7-(5-(difluoromethyl)-1,3,4-oxadiazol-2-yl)imidazo[1,2-a]pyridin-2-yl)methyl)-1-ethyl-N-phenylpiperidine-4-sulfonamide]
5 | > 50000 | 542 | 92.2 | O=C(C1CCC1)N1CCC(S(=O)(=O)N(Cc2cn3ccc(-c4nnc(C(F)F)o4)cc3n2)c2cccc(F)c2)CC1 [Compound 4248, 1-(cyclobutanecarbonyl)-N-((7-(5-(difluoromethyl)-1,3,4-oxadiazol-2-yl)imidazo[1,2-a]pyridine-2-yl)methyl)-N-(3-fluorophenyl)piperidine-4-sulfonamide]
6 | > 50000 | 936 | 53.4 | O=S(=O)(C1CCN(C2CCC2)CC1)N(Cc1cn2ccc(-c3nnc(C(F)F)o3)cc2n1)c1cccc(F)c1 [Compound 4240, 1-cyclobutyl-N-((7-(5-(difluoromethyl)-1,3,4-oxadiazol-2-yl)imidazo[1,2-a]pyridin-2-yl)methyl)-N-(3-fluorophenyl)piperidine-4-sulfonamide]

The remaining lines, values behind:

Row | SMILES | IC50 (human recombinant HDAC1) [nM] | HDAC6 selectivity (fold) (human recombinant HDAC6) | IC50 (human recombinant HDAC6) [nM]
7 | O=S(=O)(C1CCN(C2CCC2)CC1)N(Cc1cn2ccc(-c3nnc(C(F)F)o3)cc2n1)c1ccccc1 [Compound 4217, 1-cyclobutyl-N-((7-(5-(difluoromethyl)-1,3,4-oxadiazol-2-yl)imidazo[1,2-a]pyridin-2-yl)methyl)-N-phenylpiperidine-4-sulfonamide] | > 50000 | 410 | 122
8 | O=C(C1CCC1)N1CCC(S(=O)(=O)N(Cc2cn3ccc(-c4nnc(C(F)F)o4)cc3n2)c2ccccc2)CC1 [Compound 4223, 1-(cyclobutanecarbonyl)-N-((7-(5-(difluoromethyl)-1,3,4-oxadiazol-2-yl)imidazo[1,2-a]pyridine-2-yl)methyl)-N-phenylpiperidine-4-sulfonamide] | > 50000 | 392 | 128
9 | O=C(CO)N1CCN(S(=O)(=O)N(Cc2cn3ccc(-c4nnc(C(F)F)o4)cc3n2)c2cccc(F)c2)CC1 [Compound 4308, N-((7-(5-(difluoromethyl)-1,3,4-oxadiazol-2-yl)imidazo[1,2-a]pyridin-2-yl)methyl)-N-(3-fluorophenyl)-4-(2-hydroxyacetyl)piperazine-1-sulfonamide] | > 50000 | 724 | 69.1
10 | CC(CO)N1CCC(S(=O)(=O)N(Cc2cn3ccc(-c4nnc(C(F)F)o4)cc3n2)c2ccccc2)CC1 (stereo not drawn) [Compound 4216, N-((7-(5-(difluoromethyl)-1,3,4-oxadiazol-2-yl)imidazo[1,2-a]pyridin-2-yl)methyl)-1-(1-hydroxypropan-2-yl)-N-phenylpiperidine-4-sulfonamide] | > 50000 | 420 | 119
11 | O=C(C1CCC1)N1CCN(S(=O)(=O)N(Cc2cn3ccc(-c4nnc(C(F)F)o4)cc3n2)c2cccc(F)c2)CC1 [Compound 4309, 4-(cyclobutanecarbonyl)-N-((7-(5-(difluoromethyl)-1,3,4-oxadiazol-2-yl)imidazo[1,2-a]pyridine-2-yl)methyl)-N-(3-fluorophenyl)piperazine-1-sulfonamide] | > 50000 | 437 | 114
12 | CN1CCC(S(=O)(=O)N(Cc2cn3ccc(-c4nnc(C(F)F)o4)cc3n2)c2ccccc2)CC1 [Compound 3778, N-((7-(5-(difluoromethyl)-1,3,4-oxadiazol-2-yl)imidazo[1,2-a]pyridin-2-yl)methyl)-1-methyl-N-phenylpiperidine-4-sulfonamide] | > 50000 | 549 | 91
13 | O=S(=O)(C1CCN(C2CCOCC2)CC1)N(Cc1cn2ccc(-c3nnc(C(F)F)o3)cc2n1)c1ccccc1 [Compound 4219, N-((7-(5-(difluoromethyl)-1,3,4-oxadiazol-2-yl)imidazo[1,2-a]pyridin-2-yl)methyl)-N-phenyl-1-(tetrahydro-2H-pyran-4-yl)piperidine-4-sulfonamide] | > 50000 | 482 | 104
14 | O=S(=O)(C1CCN(C2CCCCC2)CC1)N(Cc1cn2ccc(-c3nnc(C(F)F)o3)cc2n1)c1cccc(F)c1 [Compound 4242, 1-cyclohexyl-N-((7-(5-(difluoromethyl)-1,3,4-oxadiazol-2-yl)imidazo[1,2-a]pyridin-2-yl)methyl)-N-(3-fluorophenyl)piperidine-4-sulfonamide] | > 50000 | 800 | 62.5
15 | O=S(=O)(N1CCN(C2COC2)CC1)N(Cc1cn2ccc(-c3nnc(C(F)F)o3)cc2n1)c1cccc(F)c1 [Compound 4302] | > 50000 | 737 | 67.8
16 | COC(=O)N1CCN(S(=O)(=O)N(Cc2cn3ccc(-c4nnc(C(F)F)o4)cc3n2)c2cccc(F)c2)CC1 [Compound 4313, methyl 4-(N-((7-(5-(difluoromethyl)-1,3,4-oxadiazol-2-yl)imidazo[1,2-a]pyridin-2-yl)methyl)-N-(3-fluorophenyl)sulfamoyl)piperazine-1-carboxylate] | > 50000 | 371 | 135
17 | O=C(C1COC1)N1CCN(S(=O)(=O)N(Cc2cn3ccc(-c4nnc(C(F)F)o4)cc3n2)c2ccccc2)CC1 [Compound 4269, N-((7-(5-(difluoromethyl)-1,3,4-oxadiazol-2-yl)imidazo[1,2-a]pyridin-2-yl)methyl)-4-(oxetan-3-carbonyl)-N-phenylpiperazine-1-sulfonamide] | > 50000 | 259 | 193
